From patent publication US6140354A, “N-substituted aminotetralins as ligands for the neuropeptide Y Y5 receptor useful in the treatment of obesity and other disorders” (Ortho-McNeil Pharmaceutical, Inc., priority 1999, dated 2000)

Tests used:
[1] = target: T1, human neuropeptide Y5 receptor (Homo sapiens, UniProt Q15761); assay: NPY5 HTS Centrifugation Assay: competition with 125I-PYY for binding to NPY5-transfected HEK293 cell membranes; details: 80 pM 125I-PYY, 1 hr room temperature, read-out: % Inh @ 3 uM (% Inhibition of ^125 I-PYY Binding)
T1 construct: expressed in transfected cells
T1 sequence (Q15761 1-445): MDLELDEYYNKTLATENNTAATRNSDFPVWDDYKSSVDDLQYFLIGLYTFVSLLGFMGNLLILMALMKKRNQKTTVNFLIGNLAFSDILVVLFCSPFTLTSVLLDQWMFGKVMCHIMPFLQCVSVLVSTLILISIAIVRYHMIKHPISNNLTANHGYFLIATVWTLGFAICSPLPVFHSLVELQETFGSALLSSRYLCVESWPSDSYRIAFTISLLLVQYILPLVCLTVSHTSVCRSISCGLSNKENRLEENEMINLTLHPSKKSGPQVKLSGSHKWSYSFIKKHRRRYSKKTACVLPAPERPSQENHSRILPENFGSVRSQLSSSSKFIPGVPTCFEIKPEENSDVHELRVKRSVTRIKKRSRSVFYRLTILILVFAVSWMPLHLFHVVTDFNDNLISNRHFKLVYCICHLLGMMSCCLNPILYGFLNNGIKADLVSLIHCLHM
Experimental: The compounds described in this invention were evaluated for binding to the human neuropeptide Y5 receptor.
The human NPY5 receptor cDNA (Genbank Accession number U66275) was inserted into the vector pClneo (Invitrogen) and transfected into human embryonic kidney cells (HEK-293) via Calcium phosphate method (Cullen 1987). Stably transfected cells were selected with G-418 (600 ug/mL). Stably transfected cells served as the source for the membranes for the NPY5 receptor binding assay.
NPY5-transfected HEK293 cells were grown to confluence in 150 cm^2 culture dishes. Cells were washed once with phosphate-buffered saline (Gibco Cat#14040-133). Cells were then incubated in phosphate-buffered saline without Calcium and without Magnesium, supplemented with 2 mM EDTA. Cells were incubated for 10 minutes at room temperature and the cells were collected by repetitive pipeting. Cells were formed into pellets and then frozen at -80 until needed. Frozen pellets were homogenized with a polytron at full speed for 12 seconds in a homogenization buffer (20 mM Tris HCl, 5 mM EDTA, pH 7.4). Homogenates were centrifuged for 5 minutes at 4C at 200 g. Supernatants were transferred to corex tubes and centrifuged for 25 minutes at 28,000 g. Pellets were re-suspended in Binding (20 mM HEPES, 10 mM NaCl, 0.22 mM KH2 PO4, 1.3 mM CaCl2, 0.8 mM MgSO4, pH 7.4). Membranes were kept on ice until use.
A competition binding assay, known to those skilled in the art, was used in which aminotetralins (I) compete with ^125 I-PYY for binding to cell membranes. In simple terms, the less ^125 I-PYY bound to the membranes implies that a compound is a good inhibitor (competitor). Bound ^125 I-PYY is determined by centrifugation of membranes, aspirating supernatant, washing away residual ^125 I-PYY and subsequently counting the bound sample in a g-counter.
Compounds to be tested were prepared as 10× stocks in binding buffer and added first to assay tubes (RIA vials, Sarstedt). Twenty (20) μL of each 10× compound stock is pipeted into vials and 80 μL of ^125 I-PYY (NEN catalog number NEX240), which has been diluted to a concentration of 200 pM in 0.25% BSA in binding buffer, is added to the compound tubes (final concentration of ^125 I-PYY is 80 pM). To each tube is added 100 μL of membranes and the mixture is agitated by pipeting 2 times. Samples are incubated for 1 hr at room temperature. Aluminum cast plates (Sarstedt) containing the vials are then centrifuged 10 minutes at 3200 rpm in a Sorvall RT6000. Supernatant is then aspirated. To each vial 400 μL PBS is added and this is then aspirated again. Vials are then put in carrier polypropylene 12×75 tube and counted in gamma counter (Packard). Non-specific binding is determined in the presence of 300 nM NPY. Percent inhibition of ^125 I-PYY binding is calculated by subtracting non-specific binding from the test samples (compound (I)), taking these counts and dividing by total binding, and multiplying by 100. Inhibitory concentration values (IC50) of compounds that show appreciable inhibition of ^125 I-PYY binding are calculated by obtaining percent inhibition of ^125 I-PYY binding values at different concentrations of the test compound, and using a graphing program such as GraphPad Prism (San Diego, Calif.) to calculate the concentration of test compound that inhibits fifty-percent of ^125 I-PYY binding (Table 4). These operations are known to those skilled in the art.

[2] = Rodent Feeding Model: Measurement of Food Intake in Food-Deprived Rats; assay type: in vivo, Male Long-Evans rats; details: 30 mg/kg i.p., N = 8; for Food Consumption (% chg.) 0-2 hrs / Food Consumption (% chg.) 0-6 hrs / Food Consumption (% chg.) 2-6 hrs: vs vehicle, negative = reduction
Experimental: Male Long-Evans rats (180-200 grams) are housed individually and are maintained on a once-a-day feeding schedule (i.e. 10 a.m. until 4 p.m.) for five days following quarantine to allow the animals to acclimate to feeding on powdered chow (#5002 PMI Certified Rodent Meal) during the allotted time. The chow is made available in an open jar, anchored in the cage by a wire, with a metal follower covering the food to minimize spillage. Water is available ad-libitum.
Animals are fasted for 18 hours prior to testing. At the end of the fasting period, animals are administered either compounds of the invention or vehicle. Vehicle and test compounds are administered either orally (5 mL/kg) 60 minutes prior to the experiment, or 30 minutes prior when given subcutaneously (1 mL/kg) or intraperitoneally (1 mL/kg). Compounds of the invention are administered orally as a suspension in aqueous 0.5% methylcellulose-0.4% Tween 80, or intraperitoneally as a solution or suspension in PEG 200; compound concentrations typically range from 1 mg/kg to 100 mg/kg, preferably from 10-30 mg/kg. Food intake is measured at 2, 4, and 6 hours after administration by weighing the special jar containing the food before the experiment and at the specified times. Upon completion of the experiment, all animals are given a one-week washout period before retesting.
Percent reduction of food consumption is calculated subtracting the grams of food consumed by the treated group from the grams of food consumed by the control group divided by the grams of food consumed by the control group, multiplied by 100. [formula] A negative value indicates a reduction in food consumption and a positive value indicates an increase in food consumption.

classic Y1 receptor = details: cited from earlier work
[3] = cited from earlier work
[4] = icv or into the amygdala; cited from earlier work
[5] = animal models of learning; cited from earlier work
[6] = test system: forskolin-stimulated cAMP production/levels in a neuroblastoma cell line; details: cited from earlier work

| Compound | inhibition at 3 µM [1] | Food Consumption (grams) 0-2 hrs [2] | Food Consumption (% chg.) 0-2 hrs [2] | Food Consumption (grams) 0-6 hrs [2] | Food Consumption (% chg.) 0-6 hrs [2] | Food Consumption (grams) 2-6 hrs [2] | Food Consumption (% chg.) 2-6 hrs [2] | binding at the classic Y1 receptor (classic Y1 receptor) | feeding ([3]; NPY fragment) | anxiolytic effects [4] | memory and performance scores [5] | forskolin-stimulated cAMP production/levels [6] | food intake ([3]; as little as one-billionth of a gram injected directly into the CNS, satiated rats) |
| --- | --- | --- | --- | --- | --- | --- | --- | --- | --- | --- | --- | --- | --- |
| O=S(=O)(NC[C@H]1CC[C@H](CN[C@H]2CCc3cc(O)ccc3[C@H]2Cc2cccnc2)CC1)c1ccccc1F (relative stereo) [Compound 44, rac-[1α,2α(trans)]-N-[[[[[1,2,3,4-tetrahydro-6-hydroxy-1-(3-pyridinylmethyl)-2-naphthalenyl]amino]methyl]-4-cyclohexyl]methyl]2-fluorobenzenesulfonamide] | 101% | 4.75 g | -40.6% | 14.00 g | -24.3% | 9.25 g | -11.9% |  |  |  |  |  |  |
| NPY2-36: NPY fragment |  |  |  |  |  |  |  | poor binding | potent inducer of feeding |  |  |  |  |
| O=S(=O)(NC[C@H]1CC[C@H](CNC2CCc3cc(F)ccc3C2Cc2cccnc2)CC1)c1ccccc1F (relative stereo) [Compound 111] |  | 5.13 g | -35.9% | 12.63 g | -31.7% | 7.50 g | -28.6% |  |  |  |  |  |  |
| Neuropeptide Y: single peptide protein that consists of thirty-six amino acids containing an amidated C-terminus |  |  |  |  |  |  |  |  |  | produces anxiolytic effects | improves memory and performance scores | inhibits forskolin-stimulated cAMP production/levels | causes satiated rats to overeat |
| COc1ccc2c(c1)CC[C@H](NC[C@H]1CC[C@H](CNS(=O)(=O)c3ccc(OC)c(OC)c3)CC1)[C@@H]2Cc1ccccc1 (relative stereo) [Compound 53] |  | 5.75 g | -33.3% | 11.88 g | -40.2% | 6.13 g | -45.6% |  |  |  |  |  |  |
| COc1ccc2c(c1)CCC(NC[C@H]1CC[C@H](CNS(=O)(=O)c3ccccc3F)CC1)C2Cc1cccnc1 (relative stereo) [Compound 43] |  | 6.63 g | -17.1% | 15.25 g | -17.6% | 8.63 g | -17.8% |  |  |  |  |  |  |
